# In patent publication US8592161B2, “Mutational profiles in HIV-1 protease correlated with phenotypic drug resistance” (Janssen R&D Ireland, priority 2002, dated 2013):
# Test system: HIV-1/LAI
# Experiment: In vitro antiviral activity in acutely infected MT4 cells, wild type
# Format: cell-based
# Conditions: Human immunodeficiency virus 1, MT4, Table 1, wild-type HIV/LAI, read-out: median EC50
# Protocol: (§1) Determination of the antiviral activity of a compound was done as described in Pauwels R. et al. (J Virol Methods 1988; 20(4):309-21). Various concentrations of the test compounds were brought into each well of a flat-bottom microtiter plate. Subsequently, HIV and MT4 cells were added to a final concentration of 200-250 50% cell culture infectious doses (CCID50)/well and 30,000 cells/well, respectively. After 5 days of incubation (37° C., 5% CO2), the cytopathic effect of the replicating virus was determined by the tetrazolium colorimetric MTT method. The dose protecting 50% of the cells from virus cytopathic effect was defined as the EC50, while the dose achieving 90% protection was defined as the EC90.
# (§2) MT4-LTR-EGFP cells were infected at a multiplicity of infection (MOI) of 0.01 to 0.001 CCID50/cell in the presence of inhibitor. The starting concentration of the inhibitor was two to tee times the EC50, a suboptimal concentration. The cultures were sub-cultivated and scored microscopically on virus-induced fluorescence and cytopathicity every 3-4 days. The cultures were sub-cultivated in the presence of the same compound concentration until signs of virus replication were observed. The escaping virus was further cultivated in the presence of the same inhibitor concentration in order to enrich the population in resistant variants. If full virus breakthrough was observed the supernatant was collected and stored (new virus strain). Afterwards, the same virus was challenged with a higher compound concentration in order to select variants able to grow in the presence of as high as possible inhibitor concentrations. From the new viruses, a virus stock was grown in the absence of inhibitor.
# (§3) In vitro drug selection experiments starting from wild-type HIV-1 under pressure of compound 1, compound 2, and Nelfinavir (NFV) have been performed. Tables 1, 2, 3, 4, and 5 show the genotypic and phenotypic characterization of the selected strains.
row,SMILES,EC50 [nM]
1,CC(C)CN(C[C@@H](O)[C@H](Cc1ccccc1)NC(=O)O[C@H]1CCOC1)S(=O)(=O)c1ccc(N)cc1 [Amprenavir],36

# Same assay, conditions: Human immunodeficiency virus 1, MT4, Table 2, wild-type HIV-1/LAI, read-out: median EC50
row,SMILES,EC50 [nM]
1,CC(C)CN(C[C@@H](O)[C@H](Cc1ccccc1)NC(=O)O[C@H]1CCOC1)S(=O)(=O)c1ccc(N)cc1 [Amprenavir],20

# Same assay, conditions: Human immunodeficiency virus 1, MT4, Table 3, wild-type HIV-1/LAI, read-out: median EC50
row,SMILES,EC50 [nM]
1,CC(C)CN(C[C@@H](O)[C@H](Cc1ccccc1)NC(=O)O[C@H]1CCOC1)S(=O)(=O)c1ccc(N)cc1 [Amprenavir],20

# Same assay, conditions: Human immunodeficiency virus 1, MT4, Table 4, wild-type HIV-1/LAI, read-out: median EC50
row,SMILES,EC50 [nM]
1,CC(C)CN(C[C@@H](O)[C@H](Cc1ccccc1)NC(=O)O[C@H]1CCOC1)S(=O)(=O)c1ccc(N)cc1 [Amprenavir],20

# Same assay, conditions: Human immunodeficiency virus 1, MT4, Table 5, wild-type HIV-1/LAI, read-out: median EC50
row,SMILES,EC50 [nM]
1,CC(C)CN(C[C@@H](O)[C@H](Cc1ccccc1)NC(=O)O[C@H]1CCOC1)S(=O)(=O)c1ccc(N)cc1 [Amprenavir],20

# Test system: HIV-1 strain selected with Comp 1 (20 nM, 94 days), protease R41G/R V82V/I
# Experiment: In vitro antiviral activity in acutely infected MT4 cells, selected strain
# Format: cell-based
# Conditions: Human immunodeficiency virus 1, Table 4, strain R41G/R V82V/I (Comp 1 20 nM, 94 days), read-out: median EC50
# Protocol: as §1, §2, §3
row,SMILES,EC50 [nM]
1,CC(C)CN(C[C@@H](O)[C@H](Cc1ccccc1)NC(=O)O[C@H]1CCOC1)S(=O)(=O)c1ccc(N)cc1 [Amprenavir],7.3

# Same assay, conditions: Table 4, strain R41G/R V82V/I (Comp 1 20 nM, 94 days)
row,SMILES,median FC (fold change in EC50 as compared to wild type)
1,CC(C)CN(C[C@@H](O)[C@H](Cc1ccccc1)NC(=O)O[C@H]1CCOC1)S(=O)(=O)c1ccc(N)cc1 [Amprenavir],0

# Test system: HIV-1 strain selected with Comp 1 (40 nM, 161 days), protease R41G V82I
# Experiment: as above
# Format: cell-based
# Conditions: Human immunodeficiency virus 1, Table 4, strain R41G V82I (Comp 1 40 nM, 161 days), read-out: median EC50
# Protocol: as §1, §2, §3
row,SMILES,EC50 [nM]
1,CC(C)CN(C[C@@H](O)[C@H](Cc1ccccc1)NC(=O)O[C@H]1CCOC1)S(=O)(=O)c1ccc(N)cc1 [Amprenavir],6.6

# Same assay, conditions: Table 4, strain R41G V82I (Comp 1 40 nM, 161 days)
row,SMILES,median FC (fold change in EC50 as compared to wild type)
1,CC(C)CN(C[C@@H](O)[C@H](Cc1ccccc1)NC(=O)O[C@H]1CCOC1)S(=O)(=O)c1ccc(N)cc1 [Amprenavir],0

# Test system: HIV-1 strain selected with Comp 1 (40 nM, 175 days), protease R41G V82I
# Experiment: as above
# Format: cell-based
# Conditions: Human immunodeficiency virus 1, Table 4, strain R41G V82I (Comp 1 40 nM, 175 days), read-out: median EC50
# Protocol: as §1, §2, §3
row,SMILES,EC50 [nM]
1,CC(C)CN(C[C@@H](O)[C@H](Cc1ccccc1)NC(=O)O[C@H]1CCOC1)S(=O)(=O)c1ccc(N)cc1 [Amprenavir],9.4

# Same assay, conditions: Table 4, strain R41G V82I (Comp 1 40 nM, 175 days)
row,SMILES,median FC (fold change in EC50 as compared to wild type)
1,CC(C)CN(C[C@@H](O)[C@H](Cc1ccccc1)NC(=O)O[C@H]1CCOC1)S(=O)(=O)c1ccc(N)cc1 [Amprenavir],0

# Test system: HIV-1/LAI strain selected with Comp 1 (100 nM, 139 days), protease S37S/N R41R/K K70E
# Experiment: as above
# Format: cell-based
# Conditions: Human immunodeficiency virus 1, Table 2, strain S37S/N R41R/K K70E (Comp 1 100 nM, 139 days), read-out: median EC50
# Protocol: as §1, §2, §3
row,SMILES,EC50 [nM]
1,CC(C)CN(C[C@@H](O)[C@H](Cc1ccccc1)NC(=O)O[C@H]1CCOC1)S(=O)(=O)c1ccc(N)cc1 [Amprenavir],24

# Same assay, conditions: Table 2, strain S37S/N R41R/K K70E (Comp 1 100 nM, 139 days)
row,SMILES,median FC (fold change in EC50 as compared to wild type)
1,CC(C)CN(C[C@@H](O)[C@H](Cc1ccccc1)NC(=O)O[C@H]1CCOC1)S(=O)(=O)c1ccc(N)cc1 [Amprenavir],1

# Test system: HIV-1/LAI strain selected with Comp 1 (100 nM, 195 days), protease S37N R41S K70E
# Experiment: as above
# Format: cell-based
# Conditions: Human immunodeficiency virus 1, Table 2, strain S37N R41S K70E (Comp 1 100 nM, 195 days), read-out: median EC50
# Protocol: as §1, §2, §3
row,SMILES,EC50 [nM]
1,CC(C)CN(C[C@@H](O)[C@H](Cc1ccccc1)NC(=O)O[C@H]1CCOC1)S(=O)(=O)c1ccc(N)cc1 [Amprenavir],14

# Same assay, conditions: Table 2, strain S37N R41S K70E (Comp 1 100 nM, 195 days)
row,SMILES,median FC (fold change in EC50 as compared to wild type)
1,CC(C)CN(C[C@@H](O)[C@H](Cc1ccccc1)NC(=O)O[C@H]1CCOC1)S(=O)(=O)c1ccc(N)cc1 [Amprenavir],1

# Test system: HIV-1/LAI strain selected with Comp 1 (200 nM, 328 days), protease S37N R41S K70E
# Experiment: as above
# Format: cell-based
# Conditions: Human immunodeficiency virus 1, Table 2, strain S37N R41S K70E (Comp 1 200 nM, 328 days), read-out: median EC50
# Protocol: as §1, §2, §3
row,SMILES,EC50 [nM]
1,CC(C)CN(C[C@@H](O)[C@H](Cc1ccccc1)NC(=O)O[C@H]1CCOC1)S(=O)(=O)c1ccc(N)cc1 [Amprenavir],15

# Same assay, conditions: Table 2, strain S37N R41S K70E (Comp 1 200 nM, 328 days)
row,SMILES,median FC (fold change in EC50 as compared to wild type)
1,CC(C)CN(C[C@@H](O)[C@H](Cc1ccccc1)NC(=O)O[C@H]1CCOC1)S(=O)(=O)c1ccc(N)cc1 [Amprenavir],1

# Test system: HIV-1/LAI strain selected with Comp 1 (30 nM, 70 days), protease K70E
# Experiment: as above
# Format: cell-based
# Conditions: Human immunodeficiency virus 1, Table 2, strain K70E (Comp 1 30 nM, 70 days), read-out: median EC50
# Protocol: as §1, §2, §3
row,SMILES,EC50 [nM]
1,CC(C)CN(C[C@@H](O)[C@H](Cc1ccccc1)NC(=O)O[C@H]1CCOC1)S(=O)(=O)c1ccc(N)cc1 [Amprenavir],56

# Same assay, conditions: Table 2, strain K70E (Comp 1 30 nM, 70 days)
row,SMILES,median FC (fold change in EC50 as compared to wild type)
1,CC(C)CN(C[C@@H](O)[C@H](Cc1ccccc1)NC(=O)O[C@H]1CCOC1)S(=O)(=O)c1ccc(N)cc1 [Amprenavir],3

# Test system: HIV-1/LAI strain selected with Compound 1 (100 nM, 188 days), protease R41T K70E
# Experiment: as above
# Format: cell-based
# Conditions: Human immunodeficiency virus 1, Table 1, strain R41T K70E (Compound 1 100 nM, 188 days), read-out: median EC50
# Protocol: as §1, §2, §3
row,SMILES,EC50 [nM]
1,CC(C)CN(C[C@@H](O)[C@H](Cc1ccccc1)NC(=O)O[C@H]1CCOC1)S(=O)(=O)c1ccc(N)cc1 [Amprenavir],39

# Same assay, conditions: Table 1, strain R41T K70E (Compound 1 100 nM, 188 days)
row,SMILES,median FC (fold change in EC50 as compared to wild type)
1,CC(C)CN(C[C@@H](O)[C@H](Cc1ccccc1)NC(=O)O[C@H]1CCOC1)S(=O)(=O)c1ccc(N)cc1 [Amprenavir],1

# Test system: HIV-1/LAI strain selected with Compound 1 (30 nM, 45 days), protease R41T
# Experiment: as above
# Format: cell-based
# Conditions: Human immunodeficiency virus 1, Table 1, strain R41T (Compound 1 30 nM, 45 days), read-out: median EC50
# Protocol: as §1, §2, §3
row,SMILES,EC50 [nM]
1,CC(C)CN(C[C@@H](O)[C@H](Cc1ccccc1)NC(=O)O[C@H]1CCOC1)S(=O)(=O)c1ccc(N)cc1 [Amprenavir],38

# Same assay, conditions: Table 1, strain R41T (Compound 1 30 nM, 45 days)
row,SMILES,median FC (fold change in EC50 as compared to wild type)
1,CC(C)CN(C[C@@H](O)[C@H](Cc1ccccc1)NC(=O)O[C@H]1CCOC1)S(=O)(=O)c1ccc(N)cc1 [Amprenavir],1

# Test system: HIV-1/LAI strain selected with Compound 2 (100 nM), protease R41I; Table 3
# Experiment: as above
# Format: cell-based
# Conditions: Human immunodeficiency virus 1, R41I strain selected with Compound 2 100 nM (head lists 116, 200, 264 days; assignment unclear), read-out: median EC50
# Protocol: as §1, §2, §3
row,SMILES,EC50 [nM]
1,CC(C)CN(C[C@@H](O)[C@H](Cc1ccccc1)NC(=O)O[C@H]1CCOC1)S(=O)(=O)c1ccc(N)cc1 [Amprenavir],14

# Test system: HIV-1/LAI strain selected with NFV (1000 nM, 35 days), protease D30N M46I
# Experiment: as above
# Format: cell-based
# Conditions: Human immunodeficiency virus 1, Table 5, strain D30N M46I (NFV 1000 nM, 35 days), read-out: median EC50
# Protocol: as §1, §2, §3
row,SMILES,EC50 [nM]
1,CC(C)CN(C[C@@H](O)[C@H](Cc1ccccc1)NC(=O)O[C@H]1CCOC1)S(=O)(=O)c1ccc(N)cc1 [Amprenavir],28

# Same assay, conditions: Table 5, strain D30N M46I (NFV 1000 nM, 35 days)
row,SMILES,median FC (fold change in EC50 as compared to wild type)
1,CC(C)CN(C[C@@H](O)[C@H](Cc1ccccc1)NC(=O)O[C@H]1CCOC1)S(=O)(=O)c1ccc(N)cc1 [Amprenavir],1

# Test system: HIV-1/LAI strain selected with NFV (9000 nM, 11l days), protease L10F D30N R41R/K K45I/K M46I V77I I84V/I I85V/I N88D
# Experiment: as above
# Format: cell-based
# Conditions: Human immunodeficiency virus 1, Table 5, strain L10F D30N R41R/K K45I/K M46I V77I I84V/I I85V/I N88D (NFV 9000 nM, 11l days), read-out: median EC50
# Protocol: as §1, §2, §3
row,SMILES,EC50 [nM]
1,CC(C)CN(C[C@@H](O)[C@H](Cc1ccccc1)NC(=O)O[C@H]1CCOC1)S(=O)(=O)c1ccc(N)cc1 [Amprenavir],95

# Same assay, conditions: Table 5, strain L10F D30N R41R/K K45I/K M46I V77I I84V/I I85V/I N88D (NFV 9000 nM, 11l days)
row,SMILES,median FC (fold change in EC50 as compared to wild type)
1,CC(C)CN(C[C@@H](O)[C@H](Cc1ccccc1)NC(=O)O[C@H]1CCOC1)S(=O)(=O)c1ccc(N)cc1 [Amprenavir],5

# Test system: HIV-1/LAI strain selected with NFV (9000 nM, 140 days), protease L10F D30N R41R/K K45I/K M46I V77I I84V N88D
# Experiment: as above
# Format: cell-based
# Conditions: Human immunodeficiency virus 1, Table 5, strain L10F D30N R41R/K K45I/K M46I V77I I84V N88D (NFV 9000 nM, 140 days), read-out: median EC50
# Protocol: as §1, §2, §3
row,SMILES,EC50 [nM]
1,CC(C)CN(C[C@@H](O)[C@H](Cc1ccccc1)NC(=O)O[C@H]1CCOC1)S(=O)(=O)c1ccc(N)cc1 [Amprenavir],190

# Same assay, conditions: Table 5, strain L10F D30N R41R/K K45I/K M46I V77I I84V N88D (NFV 9000 nM, 140 days)
row,SMILES,median FC (fold change in EC50 as compared to wild type)
1,CC(C)CN(C[C@@H](O)[C@H](Cc1ccccc1)NC(=O)O[C@H]1CCOC1)S(=O)(=O)c1ccc(N)cc1 [Amprenavir],10
